Assay results published in ChEMBL document CHEMBL5137037, “Phage Display Selected Cyclic Peptide Inhibitors of Kallikrein-Related Peptidases 5 and 7 and Their In Vivo Delivery to the Skin” (J Med Chem, 2022).
pKd, pKi: −log10 of the molar value. Numbered stars: 1 amine (or outer) side, 2 acyl side, 3 side chain; on linkers, the order of the positions; unused ones are H or OH. Bridge positions count the residues as written; N and C are the ends. Square brackets hold non-standard residues; d marks the D form. Peptide text beside a SMILES is read from it. I, II: the chains in the order shown. * marks the point of attachment. X2 = CN(C)c1ccc2c(c1)[Si](C)(C)C1=CC(=[N+](C)C)C=CC1=C2c1cc(C(=O)*)ccc1C(=O)O; X1 = O=C(O)c1cc(C(=O)*)ccc1-c1c2ccc(=O)cc-2oc2cc(O)ccc12; X3 = O=C(C[C@H](CCO)C(=O)[*:2])[C@H](Cc1ccc(O)cc1)N[*:1]; Palmitoyl = CCCCCCCCCCCCCCCC(=O)*; CH2COCH2 = O=C(C[*:1])C[*:2]; hSer = N[C@@H](CCO)C(=O)O; AEEA = NCCOCCOCC(=O)O

Assays:
[1] = molecular target: T1, Kallikrein-5 (Homo sapiens, UniProt Q9Y337); assay: Inhibition of C-terminal poly-His-tagged human recombinant KLK5 (30 to 293 residues) transfected in CHO cells assessed as inhibition constant using Boc-VPR-AMC as fluorogenic substrate incubated for 30 mins by fluorescence plate reader assay; format: cell-based
T1 sequence (Q9Y337 whole entry): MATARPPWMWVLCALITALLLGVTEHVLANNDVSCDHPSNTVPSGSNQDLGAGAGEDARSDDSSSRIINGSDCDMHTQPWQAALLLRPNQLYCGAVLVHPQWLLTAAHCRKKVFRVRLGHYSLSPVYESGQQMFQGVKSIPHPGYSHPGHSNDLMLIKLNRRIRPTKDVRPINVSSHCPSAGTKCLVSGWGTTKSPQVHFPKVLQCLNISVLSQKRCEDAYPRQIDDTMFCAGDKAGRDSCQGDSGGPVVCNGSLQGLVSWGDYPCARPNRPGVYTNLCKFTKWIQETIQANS

[2] = Stability of the compound in human plasma assessed as half life […] by LC-MS analysis; format: ADME, cell-free
[3] = molecular target: Albumin (Homo sapiens, UniProt P02768); assay: Binding affinity to human serum albumin by fluorescence polarization assay
Chain of Albumin (Homo sapiens, UniProt P02768) (P02768 whole entry): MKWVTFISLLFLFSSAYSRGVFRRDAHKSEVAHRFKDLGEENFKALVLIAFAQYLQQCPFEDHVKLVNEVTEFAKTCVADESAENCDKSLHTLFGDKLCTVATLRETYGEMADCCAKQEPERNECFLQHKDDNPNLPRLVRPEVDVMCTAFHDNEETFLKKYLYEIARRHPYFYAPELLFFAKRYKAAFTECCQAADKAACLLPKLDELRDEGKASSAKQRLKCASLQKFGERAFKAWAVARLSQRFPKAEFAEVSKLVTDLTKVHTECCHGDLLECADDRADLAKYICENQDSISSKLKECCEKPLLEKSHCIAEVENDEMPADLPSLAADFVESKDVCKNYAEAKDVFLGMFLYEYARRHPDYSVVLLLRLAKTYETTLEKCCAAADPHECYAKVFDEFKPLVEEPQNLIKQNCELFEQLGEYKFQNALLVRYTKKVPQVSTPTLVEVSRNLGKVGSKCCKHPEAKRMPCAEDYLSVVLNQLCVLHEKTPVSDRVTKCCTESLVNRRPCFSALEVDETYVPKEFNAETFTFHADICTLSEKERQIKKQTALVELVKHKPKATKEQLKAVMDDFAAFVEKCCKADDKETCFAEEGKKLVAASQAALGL

[4] = molecular target: Albumin (Mus musculus, UniProt P07724); assay: Binding affinity to mouse serum albumin by fluorescence polarization assay
Chain of Albumin (Mus musculus, UniProt P07724) (P07724 whole entry): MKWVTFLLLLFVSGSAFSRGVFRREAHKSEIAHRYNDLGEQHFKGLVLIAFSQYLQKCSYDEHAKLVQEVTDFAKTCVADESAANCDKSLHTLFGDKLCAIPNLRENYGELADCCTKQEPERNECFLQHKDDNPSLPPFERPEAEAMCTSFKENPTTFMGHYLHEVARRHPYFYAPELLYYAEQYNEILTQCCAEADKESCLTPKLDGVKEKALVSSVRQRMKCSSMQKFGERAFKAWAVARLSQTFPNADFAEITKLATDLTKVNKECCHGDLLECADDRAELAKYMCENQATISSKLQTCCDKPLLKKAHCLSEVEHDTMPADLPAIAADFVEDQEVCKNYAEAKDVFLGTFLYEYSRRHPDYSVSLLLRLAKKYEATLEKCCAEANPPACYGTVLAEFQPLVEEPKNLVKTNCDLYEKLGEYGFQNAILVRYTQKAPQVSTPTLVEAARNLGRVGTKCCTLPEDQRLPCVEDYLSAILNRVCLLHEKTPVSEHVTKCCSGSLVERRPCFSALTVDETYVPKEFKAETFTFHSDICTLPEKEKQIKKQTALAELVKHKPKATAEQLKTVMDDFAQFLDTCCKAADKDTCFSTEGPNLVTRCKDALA

[5] = molecular target: Kallikrein-7 (Mus musculus, UniProt Q91VE3); assay: Inhibition of mouse KLK7 assessed as inhibition constant; design: species or system CHO
Chain of Kallikrein-7 (Q91VE3 whole entry): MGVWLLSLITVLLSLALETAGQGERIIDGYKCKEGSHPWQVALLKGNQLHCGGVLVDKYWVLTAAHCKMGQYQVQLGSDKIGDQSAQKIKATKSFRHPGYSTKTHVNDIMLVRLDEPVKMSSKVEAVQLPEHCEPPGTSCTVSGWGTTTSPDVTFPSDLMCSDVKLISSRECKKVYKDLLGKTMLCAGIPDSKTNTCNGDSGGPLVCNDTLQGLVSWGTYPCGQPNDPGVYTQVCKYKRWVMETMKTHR

[6] = Plasma concentration in C57BL/6J mouse at 6.2 mg/kg, ip measured upto 24 hrs by RP-HPLC analysis; format: ADME, organism-based
[7] = Half life in C57BL/6J mouse at 6.2 mg/kg, ip by RP-HPLC analysis; format: ADME, organism-based; settings: in vivo
[8] = Drug uptake in C57BL/6J mouse skin at 12.4 mg/kg, ip measured after 48 hrs by fluorescence imaging analysis; format: ADME, organism-based, Skin of body; settings: in vivo
[9] = Half life in C57BL/6J mouse at 6.2 mg/kg, sc by RP-HPLC analysis; format: ADME, organism-based; settings: in vivo
[10] = Drug degradation in C57BL/6J mouse at 6.2 mg/kg, ip measured after 18 to 28 mins by RP-HPLC analysis; format: ADME, organism-based; settings: in vivo, time 18-28 min
[11] = Drug degradation in C57BL/6J mouse at 6.2 mg/kg, iv measured at 21 to 22 mins by RP-HPLC analysis; format: ADME, organism-based; settings: in vivo, time 21-22 min
[12] = Drug degradation in C57BL/6J mouse at 6.2 mg/kg, sc measured after 18 to 28 mins by RP-HPLC analysis; format: ADME, organism-based; settings: in vivo, time 18-28 min
[13] = Drug uptake in C57BL/6J mouse skin epidermis at 6.2 mg/kg, iv measured after 8 hrs by fluorescence imaging analysis; format: ADME, organism-based; settings: in vivo
[14] = Half life in C57BL/6J mouse at 6.2 mg/kg, iv by RP-HPLC analysis; format: ADME, organism-based; settings: in vivo
[15] = Drug uptake in C57BL/6J mouse skin epidermis assessed as half life at 3.2 mg/kg, iv by fluorescence imaging analysis; format: ADME, organism-based; settings: time 8 hrs
[16] = Drug uptake in C57BL/6J mouse skin epidermis assessed as half life at 6.4 mg/kg, ip measured after 8 hrs by DAPI staining based fluorescence microscope assay; format: ADME, organism-based; settings: in vivo

CCCCCCCCCCCCCCCC(=O)NCCCC[C@H](NC(=O)[C@H](CCC(=O)O)NC(=O)[C@H](Cc1ccc(O)cc1)NC(=O)[C@H](CCC(=O)O)NC(=O)COCCOCCNC(=O)c1ccc(-c2c3ccc(=O)cc-3oc3cc(O)ccc23)c(C(=O)O)c1)C(=O)N[C@@H](CCC(=O)O)C(=O)N[C@@H](Cc1ccc(O)cc1)C(=O)N[C@@H](CCC(=O)O)C(=O)NCCOCCOCC(=O)NCCCC[C@H](NC(=O)CNC(=O)[C@@H]1CSCC(=O)CSC[C@H](NC(=O)CN)C(=O)N[C@@H]([C@@H](C)O)C(=O)N[C@@H](CCCNC(=N)N)C(=O)N[C@@H](CCC(N)=O)C(=O)N[C@@H](Cc2ccc(O)cc2)C(=O)N2CCC[C@H]2C(=O)N1)C(=O)NCC(N)=O
pKi [1]: 8.92 | half-life [2]: 90 h | pKd [3]: 6.92 | pKd [4]: 5.15 | pKi [5]: 8.39 | concentration at 24 h [6]: 20 µM | half-life [7]: 5.1 h | Drug uptake [8]: Active | half-life [9]: 5.8 h | Stability [10]: Unstable | Stability [11]: Unstable | Stability [12]: Unstable | Drug uptake [13]: Active | half-life [14]: 4.4 h

CCCCCCCCCCCCCCCC(=O)NCCCC[C@H](NC(=O)[C@@H](CCO)CC(=O)[C@H](Cc1ccc(O)cc1)NC(=O)[C@H](CCO)NC(=O)COCCOCCNC(=O)c1ccc(-c2c3ccc(=O)cc-3oc3cc(O)ccc23)c(C(=O)O)c1)C(=O)N[C@@H](CCO)C(=O)N[C@@H](Cc1ccc(O)cc1)C(=O)N[C@@H](CCC(=O)O)C(=O)NCCOCCOCC(=O)NCCCC[C@H](NC(=O)CNC(=O)[C@@H]1CSCC(=O)CSC[C@H](NC(=O)CNC(C)=O)C(=O)N[C@@H]([C@@H](C)O)C(=O)N[C@@H](CCCNC(=N)N)C(=O)N[C@@H](CCC(N)=O)C(=O)N[C@@H](Cc2ccc(O)cc2)C(=O)N2CCC[C@H]2C(=O)N1)C(=O)NCC(N)=O (I: Ac-GCTRQYPCGKG-NH2 / II: {X1-AEEA}-[hSer][X3]K(Palmitoyl)[hSer]YE[AEEA]; linker I:2-I:8 via CH2COCH2; amide I:10-II:C)
half-life [15]: 0.64 h

CCCCCCCCCCCCCCCC(=O)NCCCC[C@H](NC(=O)[C@@H](CCO)CC(=O)[C@H](Cc1ccc(O)cc1)NC(=O)[C@H](CCO)NC(=O)COCCOCCNC(=O)c1ccc(C(=O)O)c(C2=C3C=CC(=[N+](C)C)C=C3[Si](C)(C)c3cc(N(C)C)ccc32)c1)C(=O)N[C@@H](CCO)C(=O)N[C@@H](Cc1ccc(O)cc1)C(=O)N[C@@H](CCC(=O)O)C(=O)NCCOCCOCC(=O)NCCCC[C@H](NC(=O)CNC(=O)[C@@H]1CSCC(=O)CSC[C@H](NC(=O)CNC(C)=O)C(=O)N[C@@H]([C@@H](C)O)C(=O)N[C@@H](CCCNC(=N)N)C(=O)N[C@@H](CCC(N)=O)C(=O)N[C@@H](Cc2ccc(O)cc2)C(=O)N2CCC[C@H]2C(=O)N1)C(=O)NCC(N)=O (I: Ac-GCTRQYPCGKG-NH2 / II: {X2-AEEA}-[hSer][X3]K(Palmitoyl)[hSer]YE[AEEA]; linker I:2-I:8 via CH2COCH2; amide I:10-II:C)
Drug uptake [16]: Active
